For 9 compounds, inhibition and IC50 results are on record in patent publication US20060089378A1 (priority 2004, published 2006).

Assay [1] has as its target T1, Cannabinoid CB1 Receptor (Homo sapiens, UniProt P21554).
T1 construct: expressed in transfected cells
The experiment in a line: Binding assay for CB1 agonists or inverse agonists (radioligand competition, membranes of transfected SK-N-MC cells). Particulars: for inhibition at 0.2 µM: test concentration of 0.2 μM, compounds without an IC50 binding value, read-out: Cannabinoid CB1 Receptor Binding percent inhibition.

Assay [2] has as its target T2, Cannabinoid CB2 Receptor (Homo sapiens, UniProt P34972).
T2 construct: expressed in transfected cells
The assay can be described thus: Binding assay for CB2 agonists or inverse agonists (radioligand competition, membranes of transfected SK-N-MC cells). Particulars: for inhibition at 0.2 µM: test concentration of 0.2 μM, compounds without an IC50 binding value, read-out: Cannabinoid CB2 Receptor Binding percent inhibition.

Where two headings read alike, the source gives them in different places.

T2 sequence (P34972 whole entry): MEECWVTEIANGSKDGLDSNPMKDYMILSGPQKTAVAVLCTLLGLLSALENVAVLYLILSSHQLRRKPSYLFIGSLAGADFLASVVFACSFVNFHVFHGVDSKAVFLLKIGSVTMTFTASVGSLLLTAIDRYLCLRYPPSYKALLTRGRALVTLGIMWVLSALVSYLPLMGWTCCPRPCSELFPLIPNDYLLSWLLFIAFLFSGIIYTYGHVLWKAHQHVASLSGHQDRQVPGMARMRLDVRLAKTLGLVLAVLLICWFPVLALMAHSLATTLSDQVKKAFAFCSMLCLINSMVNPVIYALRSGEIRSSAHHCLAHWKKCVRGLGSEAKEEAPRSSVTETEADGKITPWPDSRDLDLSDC
T1 sequence (P21554 whole entry): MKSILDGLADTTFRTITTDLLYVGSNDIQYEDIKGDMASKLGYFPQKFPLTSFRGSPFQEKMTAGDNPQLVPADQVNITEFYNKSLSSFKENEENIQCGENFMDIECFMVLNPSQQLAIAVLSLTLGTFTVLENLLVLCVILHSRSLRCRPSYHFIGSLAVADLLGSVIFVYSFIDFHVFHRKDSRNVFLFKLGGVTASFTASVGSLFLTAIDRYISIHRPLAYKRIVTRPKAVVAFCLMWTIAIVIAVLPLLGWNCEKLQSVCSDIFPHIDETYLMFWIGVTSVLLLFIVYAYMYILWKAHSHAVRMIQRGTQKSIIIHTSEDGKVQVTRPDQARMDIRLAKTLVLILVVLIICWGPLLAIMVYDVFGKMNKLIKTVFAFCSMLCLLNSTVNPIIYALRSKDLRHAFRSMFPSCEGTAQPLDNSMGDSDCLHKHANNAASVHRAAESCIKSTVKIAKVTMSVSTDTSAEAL

Take `O=C(NN1CC2CCCC2C1)c1nn(-c2ccc(Cl)cc2)c2c1CNC/C2=C\c1ccc(F)cc1` (stereo not drawn) [Cpd 85, (7E)-1-(4-chloro-phenyl)-7-(4-fluoro-benzylidene)-4,5,6,7-tetrahydro-1H-pyrazolo[4,3-c]pyridine-3-carboxylic acid (hexahydro-cyclopenta[c]pyrrol-2-yl)-amide]: the inhibition at 0.2 µM is 45% in assay [1] and 11% in assay [2].
In the same order, the values of `O=C(NN1CCC(O)CC1)c1nn(-c2ccc(Cl)cc2Cl)c2c1CNC/C2=C\c1ccc(F)cc1` [Cpd 145, (7E)-1-(2,4-dichloro-phenyl)-7-(4-fluoro-benzylidene)-4,5,6,7-tetrahydro-1H-pyrazolo[4,3-c]pyridine-3-carboxylic acid (4-hydroxy-piperidin-1-yl)-amide] are 12% and 5%.
Regarding `CCC(=O)N1CCc2c(c(C(=O)NC3C4(C)CCC(C4)C3(C)C)nn2Cc2ccccc2)C1` (stereo not drawn) [Cpd 110, 1-benzyl-5-propionyl-4,5,6,7-tetrahydro-1H-pyrazolo[4,3-c]pyridine-3-carboxylic acid (1,3,3-trimethyl-bicyclo[2.2.1]hept-2-yl)-amide], the IC50 was 500 nM in assay [1] and 20 nM in assay [2].
Consider `CC(NC(=O)c1nn(-c2ccc(Cl)cc2)c2c1CN(C(=O)OC(C)(C)C)C/C2=C\c1ccc(F)cc1)c1ccccn1` (stereo not drawn) [Cpd 73, (7E)-1-(4-chloro-phenyl)-7-(4-fluoro-benzylidene)-3-(1-pyridin-2-yl-ethylcarbamoyl)-1,4,6,7-tetrahydro-pyrazolo[4,3-c]pyridine-5-carboxylic acid tert-butyl ester], for which the results for the inhibition at 0.2 µM in assay [1] and in assay [2] were 50% and 6%, respectively.
Consider `CCOC(=O)CN1CCc2c(c(C(=O)NC3C4(C)CCC(C4)C3(C)C)nn2C2CCCCC2)C1` (stereo not drawn) [Cpd 126, [1-cyclohexyl-3-(1,3,3-trimethyl-bicyclo[2.2.1]hept-2-ylcarbamoyl)-1,4,6,7-tetrahydro-pyrazolo[4,3-c]pyridin-5-yl]-acetic acid ethyl ester], for which, in assay [1] (human CB1, SK-N-MC cell membranes, calculated by linear regression from percent inhibition at various concentrations, read-out: Cannabinoid CB1 Receptor Binding IC50), the IC50 is 1200 nM. Besides, the inhibition at 0.2 µM in assay [2] worked out at 49%.
As to `CC(=O)N1C/C(=C\c2ccc(F)cc2)c2c(c(C(=O)NN3CC4CCCC4C3)nn2-c2ccc(Cl)cc2)C1` (stereo not drawn) [Cpd 86, (7E)-5-acetyl-1-(4-chloro-phenyl)-7-(4-fluoro-benzylidene)-4,5,6,7-tetrahydro-1H-pyrazolo[4,3-c]pyridine-3-carboxylic acid (hexahydro-cyclopenta[c]pyrrol-2-yl)-amide], the inhibition at 0.2 µM in assay [1] was 46%; in assay [2], 24%.
In the same order, the values of `COc1ccc(/C=C2\CN(CC(=O)O)Cc3c(C(=O)N[C@H](C)c4ccccc4)nn(-c4ccc(Cl)cc4Cl)c32)cc1` [Cpd 51, (7E)-[1-(2,4-dichloro-phenyl)-7-(4-methoxy-benzylidene)-3-[(1R)-1-phenyl-ethylcarbamoyl]-1,4,6,7-tetrahydro-pyrazolo[4,3-c]pyridin-5-yl]-acetic acid] are 49% and 19%.
In the same order, the values of `COC(=O)N1C/C(=C\c2ccc(OC)cc2)c2c(c(C(=O)NN3CCC(O)CC3)nn2-c2ccc(Cl)cc2Cl)C1` [Cpd 144, (7E)-1-(2,4-dichloro-phenyl)-3-(4-hydroxy-piperidin-1-ylcarbamoyl)-7-(4-methoxy-benzylidene)-1,4,6,7-tetrahydro-pyrazolo[4,3-c]pyridine-5-carboxylic acid methyl ester] are 42% and 27%.
For the compound `COc1ccc(/C=C2\CNCc3c(C(=O)NN4CCC(O)CC4)nn(-c4ccc(Cl)cc4Cl)c32)cc1` [Cpd 142, (7E)-1-(2,4-dichloro-phenyl)-7-(4-methoxy-benzylidene)-4,5,6,7-tetrahydro-1H-pyrazolo[4,3-c]pyridine-3-carboxylic acid (4-hydroxy-piperidin-1-yl)-amide], the inhibition at 0.2 µM was found to be 10% in assay [1] and 0% in assay [2].
